The target of one test is T1, A2A receptor (Homo sapiens, UniProt P29274).
T1 construct: host or cells: CHO-K1 (co-expressing Gα15)
Briefly: Test 1: inhibitory activity to the A2A receptor, cAMP HTRF in CHO-K1/ADORA2A/Gα15 cells, NECA 50 nM. The class given is cell-based. Here is the method: (§1) Test 1: Inhibitory Activities to the A2A Receptor and the A2B Receptor CHO-K1/ADORA2A/Gα15 (GenScript, M00246) and CHO-K1/ADORA2B/Gα15 (GenScript, M00329) cells were cultured in a Ham's F-12 (Gibco, 31765092) medium containing 10% FBS, Zeocin (200 ug/mL), and Hygromycin B (100 ug/mL), or containing 10% FBS, G418 (400 ug/mL), and Hygromycin B (100 ug/mL) under culture conditions specified in the corresponding instruction. Screening procedure was as follows: 1. The cell density was adjusted with a serum-free medium to 6×10^5 cells/mL. 2. 5 uL of cell solution, 2.5 μL of NECA (Sigma, 119140-10MG), and 2.5 μL of compound solution were placed into each well of a 384-well plate (Greiner Bio-One, 784075) in sequence, the final concentration of NECA was 50 nM (CHO-K1/ADORA2A) or 10 nM (CHO-K1/ADORA2B), and the compound solution was subjected to 3-fold dilution from the final concentration of 3 uM. 3. The cells were placed still and cultured in an incubator at 37° C. for 30 min. 4. 5 μL of cAMP-d2 and 5 μL of cAMP-ab (Cisbio, 62AM4PEB) were added in sequence. 5. The 384-well plate was placed in dark at the room temperature for 1 h. 6. The plate was read (Victor X5, PerkinElmer), data were analyzed by XLfit nonlinear regression, and IC50 values of the compounds were calculated.

Another test addresses T2, A2B receptor (Homo sapiens, UniProt P29275).
T2 construct: host or cells: CHO-K1 (co-expressing Gα15)
T2 sequence (P29275 1-332): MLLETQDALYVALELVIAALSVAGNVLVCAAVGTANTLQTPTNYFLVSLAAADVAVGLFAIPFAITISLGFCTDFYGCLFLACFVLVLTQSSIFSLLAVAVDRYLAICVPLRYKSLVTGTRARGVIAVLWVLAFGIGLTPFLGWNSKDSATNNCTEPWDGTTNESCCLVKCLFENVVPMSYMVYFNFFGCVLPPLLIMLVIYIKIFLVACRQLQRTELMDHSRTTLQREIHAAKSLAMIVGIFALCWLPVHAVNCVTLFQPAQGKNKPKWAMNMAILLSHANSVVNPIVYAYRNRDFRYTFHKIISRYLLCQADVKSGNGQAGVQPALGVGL
In words: Test 1: inhibitory activity to the A2B receptor, cAMP HTRF in CHO-K1/ADORA2B/Gα15 cells, NECA 10 nM. It counts as cell-based. Here is the method: as §1
Background: In TR-FRET formats the signal depends on donor and acceptor labels being close together.

The record followed here is US20230145793A1, “SUBSTITUTED PYRIMIDINE OR PYRIDINE AMINE DERIVATIVE, COMPOSITION THEREOF, AND MEDICAL USE THEREOF” (SHANGHAI HAIYAN PHARMACEUTICAL TECHNOLOGY CO., LTD., priority 2020, published 2023).

T1 sequence (P29274 whole entry): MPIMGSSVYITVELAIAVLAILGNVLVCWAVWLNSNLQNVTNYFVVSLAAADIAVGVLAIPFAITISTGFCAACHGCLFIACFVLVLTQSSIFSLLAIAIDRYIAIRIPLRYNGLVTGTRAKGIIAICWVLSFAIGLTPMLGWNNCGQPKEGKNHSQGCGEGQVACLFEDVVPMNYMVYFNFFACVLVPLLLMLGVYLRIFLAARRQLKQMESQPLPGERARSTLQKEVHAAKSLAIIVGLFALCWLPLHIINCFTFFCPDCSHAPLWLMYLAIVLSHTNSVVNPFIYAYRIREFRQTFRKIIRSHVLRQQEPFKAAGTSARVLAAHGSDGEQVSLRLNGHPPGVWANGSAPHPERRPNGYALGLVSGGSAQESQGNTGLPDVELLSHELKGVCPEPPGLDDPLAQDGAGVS

Consider `COCCn1ccc(Cn2cc(-c3nc(-c4cccc(C#N)c4C)nc(N)c3F)nn2)n1` [Compound L-78], for which the IC50 against A2A receptor and at A2B receptor was 0.003 µM in each case.

For `Cc1c(C#N)cccc1-c1nc(N)c(F)c(-c2cn(Cc3ccn(C(C)(C)C)n3)nn2)n1` [Compound L-51], the IC50 (usually the concentration that inhibits the measured activity by half) on A2A receptor came to 0.03 µM; against A2B receptor, 0.006 µM.

With `Cc1c(C#N)cccc1-c1nc(N)c(F)c(-c2cn(Cc3nn(C)cc3F)nn2)n1` [Compound L-80], the IC50 against A2A receptor was determined as 0.015 µM; on A2B receptor, 0.013 µM.

`Cc1c(C#N)cccc1-c1nc(N)c(Cl)c(-c2cn(Cc3cccn(C(C)C)c3=O)nn2)n1` [Compound L-8]: the results for the IC50 on A2A receptor and at A2B receptor were less than 0.001 µM and 0.003 µM, respectively.

For `Cc1c(C#N)cccc1-c1nc(N)c(Cl)c(-c2cn(Cc3ccn(C4CC4)n3)nn2)n1` [Compound L-12], the figures for the IC50 against A2A receptor and on A2B receptor were less than 0.001 µM and 0.004 µM, respectively.

In the case of `Cc1c(C#N)cccc1-c1nc(N)c(F)c(-c2cn(Cc3ccn(CC(N)=O)n3)nn2)n1` [Compound L-29], the results for the IC50 against A2A receptor and on A2B receptor were 0.009 µM and 0.008 µM, respectively.

Turning to `Cc1c(C#N)cccc1-c1nc(N)c(F)c(-c2cn(Cc3cccc(C4(O)COC4)n3)nn2)n1` [Compound L-53], the IC50 against A2A receptor was found to be 0.002 µM; against A2B receptor, 0.004 µM.

As to `Cc1c(C#N)cccc1-c1nc(N)c(F)c(-c2cn(Cc3cccc(CN4CCN(C)CC4)n3)nn2)n1` [Compound L-71], the IC50 amounted to 0.006 µM on A2A receptor and 0.023 µM against A2B receptor.

On to `Cc1c(C#N)cccc1-c1nc(N)c(Cl)c(-c2cn(Cc3cc(C(C)(C)O)[nH]n3)nn2)n1` [Compound L-22], for which the IC50 on A2A receptor stood at 0.01 µM; on A2B receptor, 0.001 µM.

Take `Cc1c(C#N)cccc1-c1nc(N)c(F)c(-c2cn(Cc3cccc(C4(O)CCCC4)n3)nn2)n1` [Compound L-66]: the IC50 was 0.003 µM against A2A receptor and 0.011 µM on A2B receptor.

For the compound `COCc1cccc(Cn2cc(-c3nc(-c4cccc(C#N)c4C)nc(N)c3F)nn2)n1` [Compound L-62], the values for the IC50 against A2A receptor and against A2B receptor were 0.001 µM and 0.003 µM, respectively.

In the case of `CCn1ccc(Cn2cc(-c3nc(-c4cccc(C#N)c4C)nc(N)c3F)nn2)n1` [Compound L-30], the IC50 is less than 0.001 µM against A2A receptor and 0.001 µM against A2B receptor.

Take `Cc1c(C#N)cccc1-c1nc(N)c(F)c(-c2cn(Cc3cccn(C4CC4)c3=O)nn2)n1` [Compound L-17]: the IC50 was determined as 0.001 µM against A2A receptor and 0.007 µM on A2B receptor.

Consider `COCc1cccc(Cn2cc(-c3nc(N)nc(-c4cccc(C#N)c4C)c3F)nn2)n1` [Compound L-60], for which the IC50 came to 0.079 µM on A2A receptor and 0.073 µM against A2B receptor.

Regarding `Cc1c(C#N)cccc1-c1nc(N)c(Cl)c(-c2cn(Cc3cc[nH]n3)nn2)n1` [Compound L-20], the values for the IC50 on A2A receptor and on A2B receptor were 0.004 µM and 0.012 µM, respectively.

Consider `Cc1c(C#N)cccc1-c1nc(N)c(Cl)c(-c2cn(Cc3ccn(C4COC4)n3)nn2)n1` [Compound L-93], for which the values for the IC50 against A2A receptor and at A2B receptor were less than 0.001 µM and 0.004 µM, respectively.

In the case of `Cc1c(C#N)cccc1-c1nc(N)nc(-c2cn(Cc3cccc(C(C)(C)O)n3)nn2)c1F` [Compound L-2], the values for the IC50 on A2A receptor and at A2B receptor were 0.062 µM and 0.029 µM, respectively.

Turning to `Cc1c(C#N)cccc1-c1nc(N)c(F)c(-c2cn(Cc3ccn(CC#N)n3)nn2)n1` [Compound L-97], the values for the IC50 at A2A receptor and against A2B receptor were 0.006 µM and 0.005 µM, respectively.

In the case of `Cc1c(C#N)cccc1-c1nc(N)c(F)c(-c2cn(Cc3cccc(C4(O)CCC4)n3)nn2)n1` [Compound L-64], the IC50 against A2A receptor turned out to be 0.001 µM; at A2B receptor, 0.004 µM.

With `COC(C)c1cccc(Cn2cc(-c3nc(-c4cccc(C#N)c4C)nc(N)c3F)nn2)n1` [Compound L-86], the 50% inhibitory concentration (IC50) on A2A receptor is less than 0.001 µM; against A2B receptor, 0.001 µM.

With `Cc1c(C#N)cccc1-c1nc(N)c(F)c(-c2cn(Cc3cccc(N4CCN(C)CC4)n3)nn2)n1` [Compound L-72], the values for the IC50 at A2A receptor and against A2B receptor were 0.004 µM and 0.014 µM, respectively.

In the case of `Cc1c(C#N)cccc1-c1nc(N)c(F)c(-c2cn(Cc3cccc(C(C)(C)C#N)n3)nn2)n1` [Compound L-54], the IC50 at A2A receptor amounted to 0.003 µM; against A2B receptor, 0.004 µM.

Take `Cc1c(C#N)cccc1-c1nc(N)c(F)c(-c2cn(Cc3ccn(CC(C)C)n3)nn2)n1` [Compound L-36]: the figures for the IC50 against A2A receptor and on A2B receptor were 0.001 µM and 0.01 µM, respectively.

Regarding `Cc1c(C#N)cccc1-c1nc(N)c(Cl)c(-c2cn(Cc3cccn(C)c3=O)nn2)n1` [Compound L-13], the IC50 was 0.001 µM at A2A receptor and 0.013 µM at A2B receptor.

Turning to `Cc1c(C#N)cccc1-c1nc(N)c(F)c(-c2cn(Cc3cccc(N4CCOCC4)n3)nn2)n1` [Compound L-69], the IC50 on A2A receptor came to 0.005 µM; on A2B receptor it was 0.02 µM.

Consider `Cc1c(C#N)cccc1-c1nc(N)c(F)c(-c2cn(Cc3ccn(CC(C)(C)O)n3)nn2)n1` [Compound L-76], for which the figures for the 50% inhibitory concentration (IC50) against A2A receptor and against A2B receptor were 0.005 µM and 0.007 µM, respectively.

As to `CC(C)(O)c1cccc(Cn2cc(-c3nc(-c4cccc(C#N)c4)nc4c3OCC(=O)N4)nn2)n1` [Compound L-4], the IC50 came to 0.001 µM against A2A receptor and 0.006 µM against A2B receptor.

`Cc1c(C#N)cccc1-c1nc(N)c(Cl)c(-c2cn(Cc3cccn(CC(C)(C)O)c3=O)nn2)n1` [Compound L-7]: the figures for the IC50 at A2A receptor and at A2B receptor were less than 0.001 µM and 0.007 µM, respectively.

As for `Cc1c(C#N)cccc1-c1nc(N)c(F)c(-c2cn(Cc3cccc(N4CCC(O)C4)n3)nn2)n1` [Compound L-65], the IC50 was 0.005 µM at A2A receptor and 0.022 µM against A2B receptor.

`CC(C)(O)c1cccc(Cn2cc(-c3nc(-c4cccc(C#N)c4F)nc(N)c3F)nn2)n1` [Compound L-5]: the IC50 against A2A receptor worked out at 0.004 µM; against A2B receptor, 0.006 µM.

Consider `Cc1c(C#N)cccc1-c1nc(N)c(F)c(-c2cn(Cc3cc(C4CC4)n(C)n3)nn2)n1` [Compound L-92], for which the IC50 against A2A receptor stood at 0.011 µM; against A2B receptor it was 0.005 µM.

On to `Cc1c(C#N)cccc1-c1nc(N)c(F)c(-c2cn(Cc3ccn(CC(F)(F)F)n3)nn2)n1` [Compound L-37], for which the IC50 at A2A receptor came out at 0.002 µM; on A2B receptor it was 0.007 µM.

As to `Cc1c(F)cccc1-c1nc(N)c(F)c(-c2cn(Cc3cccc(C(C)(C)O)n3)nn2)n1` [Compound L-14], the IC50 at A2A receptor is 0.017 µM; at A2B receptor, 0.014 µM.

Turning to `Cc1c(C#N)cccc1-c1nc(N)c(F)c(-c2cn(Cc3ccn(C(C)(C)CO)n3)nn2)n1` [Compound L-49], the IC50 against A2A receptor worked out at 0.001 µM; against A2B receptor it was 0.002 µM.

Turning to `Cc1c(C#N)cccc1-c1nc(N)c(F)c(-c2cn(Cc3ccn(CC4CCCO4)n3)nn2)n1` [Compound L-83], the IC50 against A2A receptor came to 0.003 µM; at A2B receptor, 0.007 µM.

As for `Cc1c(C#N)cccc1-c1nc(N)nc(-c2cn(Cc3ccn(C)n3)nn2)c1F` [Compound L-59], the IC50 on A2A receptor was found to be 0.063 µM; against A2B receptor, 0.049 µM.

Take `Cc1c(C#N)cccc1-c1nc(N)c(Cl)c(-c2cn(Cc3ccn(C(F)F)n3)nn2)n1` [Compound L-34]: the values for the concentration for half-maximal inhibition (IC50) at A2A receptor and against A2B receptor were 0.002 µM and 0.008 µM, respectively.

As to `Cc1c(C#N)cccc1-c1nc(N)c(F)c(-c2cn(Cc3cccc(C(F)F)n3)nn2)n1` [Compound L-73], the IC50 against A2A receptor came to 0.003 µM; against A2B receptor, 0.005 µM.

`Cc1c(C#N)cccc1-c1nc(N)c(F)c(-c2cn(Cc3cccc(C(C)(O)C(F)(F)F)n3)nn2)n1` [Compound L-81]: the IC50 at A2A receptor was 0.004 µM; at A2B receptor, 0.023 µM.

On to `Cc1c(C#N)cccc1-c1nc(N)c(F)c(-c2cn(Cc3ccn(CC4CC4)n3)nn2)n1` [Compound L-39], for which the IC50 on A2A receptor turned out to be 0.002 µM; on A2B receptor, 0.007 µM.

Take `Cc1c(C#N)cccc1-c1nc(N)c(F)c(-c2cn(Cc3ccn(C(C)C)n3)nn2)n1` [Compound L-75]: the values for the IC50 against A2A receptor and against A2B receptor were less than 0.001 µM and 0.0005 µM, respectively.

As to `Cc1c(C#N)cccc1-c1nc(N)c(Cl)c(-c2cnn(Cc3ccn(C)n3)c2)n1` [Compound L-33], the IC50 is 0.002 µM against A2A receptor and 0.005 µM against A2B receptor.

As to `Cc1c(C#N)cccc1-c1nc(N)c(F)c(-c2cn(Cc3cccc(C(N)=O)n3)nn2)n1` [Compound L-56], the 50% inhibitory concentration (IC50) against A2A receptor was 0.007 µM; at A2B receptor it was 0.024 µM.

For the compound `Cc1c(C#N)cccc1-c1nc(N)c(F)c(-c2cn(Cc3cnn(C)n3)nn2)n1` [Compound L-47], the IC50 is 0.011 µM at A2A receptor and 0.024 µM at A2B receptor.

As to `CCC(C)(O)c1cccc(Cn2cc(-c3nc(-c4cccc(C#N)c4C)nc(N)c3F)nn2)n1` [Compound L-85], the figures for the half-inhibitory concentration (IC50) on A2A receptor and against A2B receptor were 0.002 µM and 0.004 µM, respectively.

For the compound `Cc1c(C#N)cccc1-c1nc(N)c(F)c(-c2cn(Cc3cc[nH]n3)nn2)n1` [Compound L-27], the IC50 turned out to be 0.007 µM against A2A receptor and 0.002 µM at A2B receptor.
